Square brackets hold non-standard residues; d marks the D form. Peptide text beside a SMILES is read from it.
Columns and labels:
THP-1 = assay: TCRL antibody binding (PR1-HLA-A2 presentation) on THP-1, flow cytometry; assay type: cell-based; settings: four doses of 1 μM added twice daily for two days, then two days culture
Procedure: To determine the effect hypomethylation agents (HMAa) have on tumor antigen presentation, AML patient-derived tumor cells were treated for two days with four doses of 1 μM SGI-110, an HMA, added twice daily and then cultured for additional two days. TAP2 expression was assessed using immunohistochemical staining with and without treatment with SGI-110 (FIG. 3A). The HLA-A2 expressing AML cell line, THP-1, was treated for two days with four doses of 1 μM SGI-110 added twice daily and then cultured for an additional two days. The cells were then analyzed for binding capacity of a unique T cell receptor-like (TCRL) antibody. The TCRL antibody is a TCR mimic that recognizes the PR1-HLA-A2-MHC complex on the surface of leukemic cells where PR-1 is a known leukemic antigen. […] An HLA-A2 negative cell line U937 (histiocytic lymphoma) was used as a negative control.

[1] = system: multiple myeloma (MM) and AML cell lines; settings: single agent; cited from earlier work
AML cell = settings: in combination with decitabine; cited from earlier work
[2] = system: chronic lymphocytic leukemia (CLL) and AML cells; settings: cited from earlier work

Nc1ncn([C@H]2C[C@H](OP(=O)(O)OCC3O[C@@H](n4cnc5c(=O)[nH]c(N)nc54)CC3O)[C@@H](CO)O2)c(=O)n1 (stereo in doubt) [SGI-110, 2′-deoxy-5-aza-cytidylyl-(3′->5′)-2′-deoxy-guanosine]
tumor antigen presentation, binding of TCRL antibody (THP-1): increased binding of TCRL antibody

CN(C)CC[C@H](CSc1ccccc1)Nc1ccc(S(=O)(=O)NC(=O)c2ccc(N3CCN(Cc4ccccc4-c4ccc(Cl)cc4)CC3)cc2)cc1[N+](=O)[O-] [ABT-737, 4-[4-[[2-(4-chlorophenyl)phenyl]methyl]piperazin-1-yl]-N-[4-[[(2R)-4-(dimethylamino)-1-phenylsulfanylbutan-2-yl]amino]-3-nitrophenyl]sulfonylbenzamide]
activity against cell lines [1]: single agent activity

N=C(N)NCCC[C@@H](N)C(=O)N[C@H](CCCNC(=N)N)C(=O)N[C@H](CCCNC(=N)N)C(=O)N[C@H](CCCNC(=N)N)C(=O)N[C@H](CCCNC(=N)N)C(=O)N[C@H](CCCNC(=N)N)C(=O)N[C@H](CCCNC(=N)N)C(=O)N[C@H](CCCNC(=N)N)C(=O)N[C@H](CCCNC(=N)N)C(=O)N[C@H](CS)C(=O)N[C@H](CCC(N)=O)C(=O)N[C@H](CS)C(=O)N[C@H](CCCNC(=N)N)C(=O)N[C@H](CCCNC(=N)N)C(=O)N[C@H](CCCCN)C(=O)N[C@H](CC(N)=O)C(=O)O.O=C(O)C(F)(F)F [GO-203, D-arginyl-D-arginyl-D-arginyl-D-arginyl-D-arginyl-D-arginyl-D-arginyl-D-arginyl-D-arginyl-D-cysteinyl-D-glutaminyl-D-cysteinyl-D-arginyl-D-arginyl-D-lysyl-D-asparagine trifluoroacetic acid] (H-[dR][dR][dR][dR][dR][dR][dR][dR][dR][dC][dQ][dC][dR][dR][dK][dN]-OH)
DNMT1 levels and AML cell survival (AML cell): effectively reduces DNMT1 levels and AML cell survival

CC1(C)CCC(c2ccc(Cl)cc2)=C(CN2CCN(c3ccc(C(=O)NS(=O)(=O)c4ccc(N[C@H](CCN5CCOCC5)CSc5ccccc5)c(S(=O)(=O)C(F)(F)F)c4)cc3)CC2)C1 [navitoclax, 4-[4-[[2-(4-chlorophenyl)-5,5-dimethylcyclohexen-1-yl]methyl]piperazin-1-yl]-N-[4-[[(2R)-4-morpholin-4-yl-1-phenylsulfanylbutan-2-yl]amino]-3-(trifluoromethylsulfonyl)phenyl]sulfonylbenzamide]
anti-cancer activity [2]: anti-cancer activity

Reference: patent US20250319183A1, “COMPOSITIONS AND METHODS FOR THE TREATMENT OF CANCER” (Beth Israel Deaconess Medical Center, priority 2021, published 2025)
